Laboratory results reported in paper PMC8402032, “Unsymmetric Cisplatin-Based Pt(IV) Conjugates Containing a PARP-1 Inhibitor Pharmacophore Tested on Malignant Pleural Mesothelioma Cell Lines” (Molecules, 2021).

Tests used:
[1] = Lipophilicity by RP-HPLC (log k′); format: physicochemical; conditions: RP-HPLC C18, 15 mM formic acid/CH3OH 30/70
Excerpt: Since it has been reported that Pt(IV) complexes enter cells by passive diffusion only, with a few exceptions, the evaluation of lipophilicity is key because it is related to the ability of a molecule to passively cross cellular membranes. RP-HPLC techniques are often used to measure the lipophilicity of a compound, since the retention is due to partitioning between the C18 chains of the stationary phase (representing the cellular membrane) and the aqueous eluent (representing the water inside and outside cells). For this purpose, the retention times (tR) of the complexes were transformed as log k′, where k′ = (tR − t0)/t0) and t0 is the column dead-time (Table 1).
RP-HPLC was used to evaluate the capacity factors of the compounds as reported elsewhere. Briefly, a chromatogram for each Pt complex (0.5 mM) was run on a C18 column Phenosphere-NEXT (5-μm, 250 × 4.6 mm ID) with an eluant composition of 15 mM formic acid/CH3OH 30/70 and a flow rate of 0.5 mL min^−1. The corresponding retention time tR was used to calculate log k′, where k′ = (tR − t0)/t0. The dead time of the column t0 was the tR of KCl, added as unretained internal reference.

[2] = test system: MM98 (sarcomatoid) malignant pleural mesothelioma cells; assay: Cell viability assay (Trypan blue dye exclusion), MM98; format: cell-based, human; conditions: 72 h treatment
Description: Complexes 6–9 were tested on a panel of human MPM cell lines together with CDDP and SAA1, added for comparison (Table 1). The half-maximal inhibitory concentration, IC50, was determined on MSTO-211H (biphasic phenotype), REN (epithelioid), BR95 (epithelioid), and MM98 (sarcomatoid) cancer cell lines to identify the most promising Pt(IV) conjugate to be further investigated. To determine the number of viable cells, the use of the dye exclusion assay was preferred to the colorimetric assay because of the heterogeneity in the energy metabolism between the different MPM cell lines. This may justify minor differences with respect to the previously published IC50 for CDDP [40].
Cells were seeded at a density of 10 × 10^4 cells per well in 6-well plates in RPMI medium supplemented with 10% fetal bovine serum (FBS), 100 μg mL^−1 streptomycin, and 10 μg mL^−1 penicillin and incubated overnight at 37 °C in a humidified environment containing 5% CO2 to allow adherence. Cisplatin was dissolved in 0.9% w/v aqueous NaCl brought to pH = 3 with HCl (final stock concentration 1 mM). The Pt(IV) complexes were dissolved in DMSO (final stock concentration 5 mM); the resulting solutions were microfiltered (0.45 μm) and their Pt content was checked by ICP-MS (see Section 3.5.2). These mother solutions were diluted in complete medium to the required concentration range.
Following 72 h of treatment with the diluent of the compound (Ctrl) or different doses of the Pt compounds, cells were trypsinized and stained with Trypan blue. The number of cells considered viable (unstained cells) was counted in a Bürker haemocytometer within 5 min after staining.

[3] = target: T1, PARP-1 (Homo sapiens, UniProt P09874); assay: Western blot of poly(ADP-ribose) (PAR) and PARP-1 in MSTO-211H cells; format: cell-based; conditions: 5 µM, 72 h
T1 construct: endogenous in cells; host or cells: MSTO-211H cells
Description: The effect of the most promising complex 6 on PARP-1 activity was further evaluated. MSTO-211H cells were treated with equimolar concentrations (5 µM) of 6, CDDP, and 3-ABA for 72 h. The two last compounds were used either alone or in combination in a 1:1 molar ratio. Western blot analysis evaluated the expression of poly(ADP-ribose) (PAR), which is the product of PARP-1 activity (Figure 4A).
For protein analysis, cells were extracted with 1% NP-40 lysis buffer (50 mM Tris-HCl pH 8.5 containing 1% NP-40, 150 mM NaCl, 10 mM EDTA, 10 mM NaF, 10 mM Na4P2O7, and 0.4 mM Na3VO4) with freshly added protease inhibitors (10 μg mL^−1 leupeptin, 4 μg mL^−1 pepstatin, and 0.1 U mL^−1 aprotinin). Lysates were centrifuged at 13,000× g for 10 min at 4 °C and the supernatants were collected and assayed for protein concentration with the Bradford assay method (Bio-Rad). Proteins were separated by SDS-PAGE (sodium dodecyl sulfate polyacrylamide gel electrophoresis) under reducing conditions. Following SDS-PAGE, proteins were transferred to nitrocellulose, reacted with specific antibodies, and then detected with peroxidase-conjugate secondary antibodies and chemioluminescent ECL reagent. Digital images were taken with the Bio-Rad ChemiDocTM Touch Imaging System and quantified using Bio-Rad Image Lab 5.2.1.
Figure 4 (A) Representative Western blot showing poly(ADP-ribose) (PAR) and PARP-1 expression following 72 h MSTO-211H cell treatment with diluent (Ctrl) or 5 µM concentrations of cisplatin (CDDP), 6, CDDP + 3-ABA combination (1:1 ratio), and 3-ABA alone. HSC70 protein was used as loading control. (B) Immunocytochemistry was used to capture representative γH2AX focus images following 72 h MSTO-211H cell treatment with diluent (Ctrl) or 5 µM of complex 6.

[4] = test system: MSTO-211H multicellular spheroids (MCS); assay: Apoptosis in MSTO-211H multicellular spheroids; format: cell-based, human; conditions: MSTO-211H MCS, 10 μM, 72 h; spheroid morphology, PARP-1 cleavage, BIM and PUMA induction
Description: The capability of compound 6 to induce apoptosis was confirmed also when MSTO-211H cells were cultured as multicellular spheroids (MCSs). MCSs and other similar 3D cultures represent an improvement of classical 2D conditions, having a more complex architectural structure and better bio-mimicking of the in vivo microenvironment. Although they suffer many of the limitations of the 2D cultures, they are a powerful tool to narrow down the gap between the in vitro and in vivo models.
Multicellular spheroids were generated in non-adsorbent round-bottomed 96-well plates, as previously described. The 96-well plates were coated with a 1:24 dilution of polyHEMA (120 mg mL^−1) in 95% ethanol and dried at 37 °C for 24 h. Before use, plates were sterilized by UV light for 30 min. For generation of multicellular spheroids, 1 × 10^4 cells were added into each well of a polyHEMA-coated 96-well plate and placed in a 37 °C humidified incubator with 5% CO2. Every 24 h, 50% of supernatant was replaced with fresh medium.
Figure 5 Compound 6 induces apoptosis in MSTO-211H multicellular spheroids (MCS). (A) Representative microscope images of MCS treated for 72 h with diluent (Ctrl) or 10 μM 6. Scale bar = 100 μm. (B) Representative Western blot showing PARP-1 cleavage in MSTO-211H MCS treated with 6. Tubulin was used as loading control. […]

T1 sequence (P09874 whole entry): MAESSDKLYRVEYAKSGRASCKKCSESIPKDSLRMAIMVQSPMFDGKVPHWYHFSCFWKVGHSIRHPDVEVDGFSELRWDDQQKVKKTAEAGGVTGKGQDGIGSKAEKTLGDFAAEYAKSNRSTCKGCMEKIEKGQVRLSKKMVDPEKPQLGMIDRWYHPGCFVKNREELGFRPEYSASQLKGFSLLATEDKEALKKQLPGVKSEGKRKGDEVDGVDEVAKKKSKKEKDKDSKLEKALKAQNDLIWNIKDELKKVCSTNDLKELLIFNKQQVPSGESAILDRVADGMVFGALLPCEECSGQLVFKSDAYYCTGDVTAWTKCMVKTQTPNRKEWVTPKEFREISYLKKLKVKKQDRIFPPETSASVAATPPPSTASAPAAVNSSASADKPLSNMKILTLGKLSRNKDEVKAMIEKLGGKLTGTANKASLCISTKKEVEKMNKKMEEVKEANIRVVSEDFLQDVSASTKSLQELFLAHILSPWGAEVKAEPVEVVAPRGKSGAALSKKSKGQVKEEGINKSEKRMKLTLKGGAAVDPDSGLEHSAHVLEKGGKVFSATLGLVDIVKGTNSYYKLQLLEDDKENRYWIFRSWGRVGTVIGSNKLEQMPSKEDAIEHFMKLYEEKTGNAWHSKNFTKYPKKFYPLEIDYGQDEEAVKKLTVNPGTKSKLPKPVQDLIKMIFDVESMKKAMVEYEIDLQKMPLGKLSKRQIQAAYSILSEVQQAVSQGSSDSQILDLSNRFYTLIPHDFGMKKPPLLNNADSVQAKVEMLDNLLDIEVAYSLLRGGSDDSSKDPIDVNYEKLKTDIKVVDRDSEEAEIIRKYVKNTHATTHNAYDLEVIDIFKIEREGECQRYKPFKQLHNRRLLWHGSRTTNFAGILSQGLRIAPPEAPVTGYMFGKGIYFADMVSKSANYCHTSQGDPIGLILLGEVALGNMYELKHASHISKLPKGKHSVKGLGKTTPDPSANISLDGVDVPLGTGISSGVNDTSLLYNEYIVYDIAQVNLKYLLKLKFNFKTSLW

Log k′ [1]: 4.22
IC50 ([2]; mean ± sd): 980 ± 30 nM
PARP-1 cleavage [3]: complex 6 alone did
PARP-1 parylation (PAR expression) [3]: No self-parylation of PARP-1
SMILES: CC(=O)[O][Pt]([NH2])([NH2])([Cl])([Cl])[O]C(=O)CCNC(=O)c1cccc(NC(=O)OCC2c3ccccc3-c3ccccc32)c1 [Compound 6, (OC-6-44)-Acetato[3-(3-(fmoc-amino)-benzamido)-propanoato]-diammine-dichlorido-platinum(IV)]
ratio IC50 (cisplatin)/IC50 (Pt(IV) complex), MM98 [2]: 1.8
apoptosis in multicellular spheroids [4]: apoptotic death was evidenced
